Test results taken from patent US12391737B2, “Soluble NPY2 receptor agonists” (Boehringer Ingelheim International GmbH, priority 2020, dated 2025).

What was measured:
[1] = Solubility determination; conditions: for Sol6: pH 6; for Sol7: pH 7
In short: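 Solubility is derived from the ratio of reversed-phase peak areas, filtered sample over a control dissolved at 1 mg/ml in 50% acetonitrile. Peptides are agitated for 2 hours at room temperature in 0.1 M sodium diphosphate at pH 6.4 or 7.0, aiming at 10 mg/ml.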

[2] = molecular target: T1, Human Neuropeptide Y2 Receptor (Homo sapiens, UniProt P49146); test: Radioligand binding competition assay (RLB); conditions: Table 3, 125I-PYY(1-36) competition; read-out: Ki
T1 construct: purchased CHEMICON HTS066M
T1 sequence (P49146 1-381): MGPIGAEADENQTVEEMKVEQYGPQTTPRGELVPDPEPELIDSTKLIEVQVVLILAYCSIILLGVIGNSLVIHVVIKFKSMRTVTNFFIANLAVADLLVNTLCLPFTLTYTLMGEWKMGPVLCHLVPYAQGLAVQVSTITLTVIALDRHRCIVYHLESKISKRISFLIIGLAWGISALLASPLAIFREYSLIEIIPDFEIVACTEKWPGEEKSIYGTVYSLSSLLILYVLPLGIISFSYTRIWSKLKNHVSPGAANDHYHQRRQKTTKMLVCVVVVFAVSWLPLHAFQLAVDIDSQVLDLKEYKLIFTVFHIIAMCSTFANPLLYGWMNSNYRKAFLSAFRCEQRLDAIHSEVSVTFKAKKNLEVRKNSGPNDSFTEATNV
In short: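 Filtration binding assay on human Y2 receptor membrane preparation, 0.5 μg protein per well, in 50 mM HEPES pH 7.4 containing 5 mM MgCl2, 1 mM CaCl2 and 0.2% ovalbumin. Plates shake 2 h at room temperature before harvest and scintillation counting.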

CC(C)CC(=O)N[C@@H](C)C(=O)N1CCC[C@H]1C(=O)N[C@@H](CCC(=O)O)C(=O)N[C@@H](CCCCNC(=O)CCCCCNC(=O)CC[C@H](NC(=O)CCCCCCCCCCCCCCCCC(=O)O)C(=O)O)C(=O)N1CCC[C@H]1C(=O)N[C@@H](CCC(=O)O)C(=O)N[C@@H](CCC(=O)O)C(=O)N[C@@H](CC(=O)O)C(=O)N[C@@H](CO)C(=O)N[C@@H](CO)C(=O)N1CCC[C@H]1C(=O)N[C@@H](CCC(=O)O)C(=O)N[C@@H](CCC(=O)O)C(=O)N[C@@H](CC(C)C)C(=O)N[C@@H](CCC(N)=O)C(=O)N[C@@H](CCCNC(=N)N)C(=O)N[C@@H](Cc1ccc(O)cc1)C(=O)N[C@@H](Cc1ccc(O)cc1)C(=O)N[C@H](C(=O)N[C@@H](C)C(=O)N[C@@H](CC(C)C)C(=O)N[C@@H](CCCNC(=N)N)C(=O)N[C@@H](Cc1c[nH]cn1)C(=O)N[C@@H](Cc1ccc(O)cc1)C(=O)N[C@@H](Cc1ccc(O)cc1)C(=O)N[C@@H](CC(N)=O)C(=O)N[C@@H](Cc1c[nH]c2ccccc12)C(=O)N[C@@H](CC(C)C)C(=O)N[C@H](C(=O)N[C@@H](CCCNC(=N)N)C(=O)N[C@@H](CCC(N)=O)C(=O)N[C@@H](CCCNC(=N)N)C(=O)N[C@@H](Cc1ccc(O)cc1)C(N)=O)[C@@H](C)O)C(C)C [Compound 151, N{alpha-4}-(3-methylbutanoyl)-N{epsilon-7}-(6-[(4S)-4-carboxy-4-(17-carboxyheptadecanamido)butanamido]hexanoyl)-[4A,7K,9E,12S,18Q,22V,23A,28Y,30W,31L]-hPYY(4-36)]
Sol6 [1]: 8.2 mg/mL
Sol7 [1]: 9.7 mg/mL
Ki [2]: 1.68 nM

CC(C)CC(=O)N[C@@H](C)C(=O)N1CCC[C@H]1C(=O)N[C@@H](CCC(=O)O)C(=O)N[C@@H](CCCCNC(=O)CCCCCNC(=O)CC[C@H](NC(=O)CCCCCCCCCCCCCCCCC(=O)O)C(=O)O)C(=O)N1CCC[C@H]1C(=O)N[C@@H](CCC(=O)O)C(=O)N[C@@H](CCC(=O)O)C(=O)N[C@@H](CC(=O)O)C(=O)N[C@@H](C)C(=O)N[C@H](C(=O)N1CCC[C@H]1C(=O)N[C@@H](CCC(=O)O)C(=O)N[C@@H](CCC(=O)O)C(=O)N[C@H](C(=O)N[C@@H](CCC(N)=O)C(=O)N[C@@H](CCCNC(=N)N)C(=O)N[C@@H](Cc1ccc(O)cc1)C(=O)N[C@@H](Cc1ccc(O)cc1)C(=O)N[C@H](C(=O)N[C@@H](CO)C(=O)N[C@@H](CC(C)C)C(=O)N[C@@H](CCCNC(=N)N)C(=O)N[C@@H](Cc1c[nH]cn1)C(=O)N[C@@H](Cc1ccc(O)cc1)C(=O)N[C@@H](Cc1ccc(O)cc1)C(=O)N[C@@H](CC(N)=O)C(=O)N[C@@H](Cc1c[nH]c2ccccc12)C(=O)N[C@@H](CC(C)C)C(=O)N[C@H](C(=O)N[C@@H](CCCNC(=N)N)C(=O)N[C@@H](CCC(N)=O)C(=O)N[C@@H](CCCNC(=N)N)C(=O)N[C@@H](Cc1ccc(O)cc1)C(N)=O)[C@@H](C)O)C(C)C)[C@@H](C)O)[C@@H](C)O [Compound 152, N{alpha-4}-(3-methylbutanoyl)-N{epsilon-7}-(6-[(4S)-4-carboxy-4-(17-carboxyheptadecanamido)butanamido]hexanoyl)-[4A,7K,9E,13T,17T,18Q,22V,28Y,30W,31L]-hPYY(4-36)]
Sol6 [1]: 8.8 mg/mL
Sol7 [1]: 8.8 mg/mL
Ki [2]: 1.32 nM

CC(C)CC(=O)N[C@@H](C)C(=O)N1CCC[C@H]1C(=O)N[C@@H](CCC(=O)O)C(=O)N[C@@H](CCCCNC(=O)CCCCCNC(=O)CC[C@H](NC(=O)CCCCCCCCCCCCCCCCC(=O)O)C(=O)O)C(=O)N1CCC[C@H]1C(=O)N[C@@H](CCC(=O)O)C(=O)N[C@@H](CCC(=O)O)C(=O)N[C@@H](CC(C)C)C(=O)N[C@@H](C)C(=O)N[C@H](C(=O)N1CCC[C@H]1C(=O)N[C@@H](CCC(=O)O)C(=O)N[C@@H](CCC(=O)O)C(=O)N[C@@H](CC(C)C)C(=O)N[C@@H](CCC(N)=O)C(=O)N[C@@H](CCCNC(=N)N)C(=O)N[C@@H](Cc1ccc(O)cc1)C(=O)N[C@@H](Cc1ccc(O)cc1)C(=O)N[C@H](C(=O)N[C@@H](CO)C(=O)N[C@@H](CC(C)C)C(=O)N[C@@H](CCCNC(=N)N)C(=O)N[C@@H](Cc1c[nH]cn1)C(=O)N[C@@H](Cc1ccc(O)cc1)C(=O)N[C@@H](Cc1ccc(O)cc1)C(=O)N[C@@H](CC(N)=O)C(=O)N[C@@H](Cc1c[nH]c2ccccc12)C(=O)N[C@@H](CC(C)C)C(=O)N[C@H](C(=O)N[C@@H](CCCNC(=N)N)C(=O)N[C@@H](CCC(N)=O)C(=O)N[C@@H](CCCNC(=N)N)C(=O)N[C@@H](Cc1ccc(O)cc1)C(N)=O)[C@@H](C)O)C(C)C)[C@@H](C)O [Compound 153, N{alpha-4}-(3-methylbutanoyl)-N{epsilon-7}-(6-[(4S)-4-carboxy-4-(17-carboxyheptadecanamido)butanamido]hexanoyl)-[4A,7K,9E,11L,13T,18Q,22V,28Y,30W,31L]-hPYY(4-36)]
Sol6 [1]: 6.0 mg/mL
Sol7 [1]: 9.5 mg/mL
Ki [2]: 6.8 nM

CC[C@H](C)[C@H](NC(=O)[C@H](CCC(=O)O)NC(=O)[C@H](CCC(=O)O)NC(=O)[C@@H]1CCCN1C(=O)[C@@H](NC(=O)[C@H](C)NC(=O)[C@H](C)NC(=O)[C@H](CCC(=O)O)NC(=O)[C@H](CCC(=O)O)NC(=O)[C@@H]1CCCN1C(=O)[C@H](CCCCNC(=O)CCCCCNC(=O)CC[C@H](NC(=O)CCCCCCCCCCCCCCCCC(=O)O)C(=O)O)NC(=O)[C@H](CCC(=O)O)NC(=O)[C@@H]1CCCN1C(=O)[C@H](C)NC(=O)CC(C)C)[C@@H](C)O)C(=O)N[C@@H](CCC(N)=O)C(=O)N[C@@H](CCCNC(=N)N)C(=O)N[C@@H](Cc1ccc(O)cc1)C(=O)N[C@@H](Cc1ccc(O)cc1)C(=O)N[C@H](C(=O)N[C@@H](C)C(=O)N[C@@H](CC(C)C)C(=O)N[C@@H](CCCNC(=N)N)C(=O)N[C@@H](Cc1c[nH]cn1)C(=O)N[C@@H](Cc1ccc(O)cc1)C(=O)N[C@@H](Cc1ccc(O)cc1)C(=O)N[C@@H](CC(N)=O)C(=O)N[C@@H](Cc1c[nH]c2ccccc12)C(=O)N[C@@H](CC(C)C)C(=O)N[C@H](C(=O)N[C@@H](CCCNC(=N)N)C(=O)N[C@@H](CCC(N)=O)C(=O)N[C@@H](CCCNC(=N)N)C(=O)N[C@@H](Cc1ccc(O)cc1)C(N)=O)[C@@H](C)O)C(C)C [Compound 154, N{alpha-4}-(3-methylbutanoyl)-N{epsilon-7}-(6-[(4S)-4-carboxy-4-(17-carboxyheptadecanamido)butanamido]hexanoyl)-[4A,7K,9E,11A,13T,17I,18Q,22V,23A,28Y,30W,31L]-hPYY(4-36)]
Sol6 [1]: 8.3 mg/mL
Sol7 [1]: >10.0 mg/mL
Ki [2]: 3.71 nM

CC(C)CC(=O)N[C@@H](C)C(=O)N1CCC[C@H]1C(=O)N[C@@H](CCC(=O)O)C(=O)N[C@@H](CCCCNC(=O)CCCCCNC(=O)CC[C@H](NC(=O)CCCCCCCCCCCCCCCCC(=O)O)C(=O)O)C(=O)N1CCC[C@H]1C(=O)N[C@@H](CCC(=O)O)C(=O)N[C@@H](CCC(=O)O)C(=O)N[C@@H](CC(=O)O)C(=O)N[C@@H](C)C(=O)N[C@H](C(=O)N1CCC[C@H]1C(=O)N[C@@H](CCC(=O)O)C(=O)N[C@@H](CCC(=O)O)C(=O)N[C@@H](CC(C)C)C(=O)N[C@@H](CCC(N)=O)C(=O)N[C@@H](CCCNC(=N)N)C(=O)N[C@@H](Cc1ccc(O)cc1)C(=O)N[C@@H](Cc1ccc(O)cc1)C(=O)N[C@H](C(=O)N[C@@H](CO)C(=O)N[C@@H](CC(C)C)C(=O)N[C@@H](CCCNC(=N)N)C(=O)N[C@@H](Cc1c[nH]cn1)C(=O)N[C@@H](Cc1ccc(O)cc1)C(=O)N[C@@H](Cc1ccc(O)cc1)C(=O)N[C@@H](CC(N)=O)C(=O)N[C@@H](Cc1c[nH]c2ccccc12)C(=O)N[C@@H](CC(C)C)C(=O)N[C@@H](CO)C(=O)N[C@@H](CCCNC(=N)N)C(=O)N[C@@H](CCC(N)=O)C(=O)N[C@@H](CCCNC(=N)N)C(=O)N[C@@H](Cc1ccc(O)cc1)C(N)=O)C(C)C)[C@@H](C)O [Compound 155, N{alpha-4}-(3-methylbutanoyl)-N{epsilon-7}-(6-[(4S)-4-carboxy-4-(17-carboxyheptadecanamido)butanamido]hexanoyl)-[4A,7K,9E,13T,18Q,22V,28Y,30W,31L,32S]-hPYY(4-36)]
Sol6 [1]: >10.0 mg/mL
Sol7 [1]: >10.0 mg/mL
Ki [2]: 7.6 nM

CC[C@H](C)[C@H](NC(=O)[C@H](CCC(=O)O)NC(=O)[C@H](CCC(=O)O)NC(=O)[C@@H]1CCCN1C(=O)[C@H](CCC(=O)O)NC(=O)[C@H](C)NC(=O)[C@H](C)NC(=O)[C@H](CCC(=O)O)NC(=O)[C@H](CCC(=O)O)NC(=O)[C@@H]1CCCN1C(=O)[C@H](CCCCNC(=O)CCCCCNC(=O)CC[C@H](NC(=O)CCCCCCCCCCCCCCCCC(=O)O)C(=O)O)NC(=O)[C@H](CCC(=O)O)NC(=O)[C@@H]1CCCN1C(=O)[C@H](C)NC(=O)CC(C)C)C(=O)N[C@@H](CCC(N)=O)C(=O)N[C@@H](CCCNC(=N)N)C(=O)N[C@@H](Cc1ccc(O)cc1)C(=O)N[C@@H](Cc1ccc(O)cc1)C(=O)N[C@H](C(=O)N[C@@H](C)C(=O)N[C@@H](CC(C)C)C(=O)N[C@@H](CCCNC(=N)N)C(=O)N[C@@H](Cc1c[nH]cn1)C(=O)N[C@@H](Cc1ccc(O)cc1)C(=O)N[C@@H](Cc1ccc(O)cc1)C(=O)N[C@@H](CC(N)=O)C(=O)N[C@@H](Cc1c[nH]c2ccccc12)C(=O)N[C@@H](CC(C)C)C(=O)N[C@H](C(=O)N[C@@H](CCCNC(=N)N)C(=O)N[C@@H](CCC(N)=O)C(=O)N[C@@H](CCCNC(=N)N)C(=O)N[C@@H](Cc1ccc(O)cc1)C(N)=O)[C@@H](C)O)C(C)C [Compound 156, N{alpha-4}-(3-methylbutanoyl)-N{epsilon-7}-(6-[(4S)-4-carboxy-4-(17-carboxyheptadecanamido)butanamido]hexanoyl)-[4A,7K,9E,11A,13E,17I,18Q,22V,23A,28Y,30W,31L]-hPYY(4-36)]
Sol6 [1]: 9.8 mg/mL
Sol7 [1]: 9.6 mg/mL
Ki [2]: 4.2 nM
